These results are taken from ChEMBL document CHEMBL5625270, “Targeting ATP-binding site of WRN Helicase: Identification of novel inhibitors through pocket analysis and Molecular Dynamics-Enhanced virtual screening” (Bioorg Med Chem Lett, 2024).

The target in assay [1] is T1, Bifunctional 3'-5' exonuclease/ATP-dependent helicase WRN (Homo sapiens, UniProt Q14191). Kind of assay: Inhibition of WRN (unknown origin) ATPase activity.
For assay [2], the species on record is Homo sapiens. Kind of assay: Inhibition of HSP90 (unknown origin) ATPase activity within 200 uM.
Assay [3] deals with T1, Bifunctional 3'-5' exonuclease/ATP-dependent helicase WRN. Kind of assay: Inhibition of WRN (unknown origin).
In assay [4] the target is RecQ-like DNA helicase BLM (Homo sapiens, UniProt P54132). Kind of assay: Inhibition of BLM (unknown origin) ATPase activity.
RecQ-like DNA helicase BLM, sequence (P54132 whole entry): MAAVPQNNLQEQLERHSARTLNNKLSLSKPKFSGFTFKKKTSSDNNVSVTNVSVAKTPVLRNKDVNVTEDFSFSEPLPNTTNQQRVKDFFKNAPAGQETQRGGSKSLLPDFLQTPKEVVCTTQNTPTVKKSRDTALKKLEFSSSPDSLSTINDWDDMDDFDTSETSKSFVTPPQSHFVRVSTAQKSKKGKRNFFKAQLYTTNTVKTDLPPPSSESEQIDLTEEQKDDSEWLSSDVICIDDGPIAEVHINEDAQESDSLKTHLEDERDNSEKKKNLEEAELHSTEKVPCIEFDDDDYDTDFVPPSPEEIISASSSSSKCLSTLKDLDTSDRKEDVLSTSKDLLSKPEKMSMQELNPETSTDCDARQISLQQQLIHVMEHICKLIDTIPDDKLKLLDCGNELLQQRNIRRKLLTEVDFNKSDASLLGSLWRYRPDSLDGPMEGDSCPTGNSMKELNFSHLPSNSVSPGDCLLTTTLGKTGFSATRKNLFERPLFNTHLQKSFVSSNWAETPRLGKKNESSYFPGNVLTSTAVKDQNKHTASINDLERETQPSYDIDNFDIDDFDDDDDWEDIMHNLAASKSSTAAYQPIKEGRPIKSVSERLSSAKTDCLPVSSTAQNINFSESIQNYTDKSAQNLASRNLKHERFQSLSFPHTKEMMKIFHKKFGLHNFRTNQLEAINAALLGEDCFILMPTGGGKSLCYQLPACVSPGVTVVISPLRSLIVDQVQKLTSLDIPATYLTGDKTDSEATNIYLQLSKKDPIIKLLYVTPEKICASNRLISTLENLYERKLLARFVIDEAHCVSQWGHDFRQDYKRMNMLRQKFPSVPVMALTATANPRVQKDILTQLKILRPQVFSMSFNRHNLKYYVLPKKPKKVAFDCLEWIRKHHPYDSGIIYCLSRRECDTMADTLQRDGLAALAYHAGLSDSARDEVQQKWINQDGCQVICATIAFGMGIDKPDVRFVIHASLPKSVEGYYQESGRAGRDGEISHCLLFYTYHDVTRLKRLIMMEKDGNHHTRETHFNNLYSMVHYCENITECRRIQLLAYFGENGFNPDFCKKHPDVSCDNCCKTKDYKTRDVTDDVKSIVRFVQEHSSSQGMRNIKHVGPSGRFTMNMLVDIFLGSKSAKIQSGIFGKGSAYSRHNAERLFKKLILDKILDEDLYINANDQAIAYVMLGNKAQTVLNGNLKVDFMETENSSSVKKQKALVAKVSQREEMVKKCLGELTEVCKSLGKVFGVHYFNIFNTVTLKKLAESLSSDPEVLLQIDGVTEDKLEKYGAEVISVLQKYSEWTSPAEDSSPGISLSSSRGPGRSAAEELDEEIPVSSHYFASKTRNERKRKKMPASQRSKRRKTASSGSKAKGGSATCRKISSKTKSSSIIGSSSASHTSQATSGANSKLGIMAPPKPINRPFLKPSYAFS
The target of assay [5] is T2, Eukaryotic initiation factor 4A-I (Homo sapiens, UniProt P60842). Kind of assay: Inhibition of eIF4A (unknown origin) ATPase activity within 200 uM.
T2 sequence (P60842 whole entry): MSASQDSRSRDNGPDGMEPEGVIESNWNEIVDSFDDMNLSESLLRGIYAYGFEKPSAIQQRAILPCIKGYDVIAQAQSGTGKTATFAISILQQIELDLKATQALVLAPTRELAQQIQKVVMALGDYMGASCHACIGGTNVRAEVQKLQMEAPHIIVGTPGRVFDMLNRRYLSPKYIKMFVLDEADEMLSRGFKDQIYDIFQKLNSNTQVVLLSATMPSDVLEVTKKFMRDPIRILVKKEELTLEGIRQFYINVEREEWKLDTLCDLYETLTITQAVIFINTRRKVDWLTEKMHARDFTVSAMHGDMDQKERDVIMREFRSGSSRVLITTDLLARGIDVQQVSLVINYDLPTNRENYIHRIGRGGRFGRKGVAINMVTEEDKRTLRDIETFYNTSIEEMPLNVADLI
The target in assay [6] is T2, Eukaryotic initiation factor 4A-I. Kind of assay: Inhibition of eIF4A (unknown origin) ATPase activity.
Assay [7] has the same target. Kind of assay: Inhibition of eIF4A (unknown origin) ATPase activity at <200 uM.
Assay [8] is described as follows: Inhibition of HSP90 (unknown origin) ATPase activity. Also noted: species or system Homo sapiens.
The target in assay [9] is T1, Bifunctional 3'-5' exonuclease/ATP-dependent helicase WRN. Kind of assay: Inhibition of recombinant human WRN unwinding activity by immunosorbent-based helicase unwinding assay.
For assay [10], the species on record is Homo sapiens. Kind of assay: Inhibition of HSP90 (unknown origin) ATPase activity at <200 uM.
In assay [11] the test system is Microsatellite instability cancer cell. Kind of assay: Cytotoxicity against Microsatellite instability cancer cell (unknown origin). In kind it is functional, cell-based.

Molecules are shown by their SMILES. Activity calls are given as the source filed them. The calls are words filed in the database; no cut-off is given here.

T1 sequence (Q14191 whole entry): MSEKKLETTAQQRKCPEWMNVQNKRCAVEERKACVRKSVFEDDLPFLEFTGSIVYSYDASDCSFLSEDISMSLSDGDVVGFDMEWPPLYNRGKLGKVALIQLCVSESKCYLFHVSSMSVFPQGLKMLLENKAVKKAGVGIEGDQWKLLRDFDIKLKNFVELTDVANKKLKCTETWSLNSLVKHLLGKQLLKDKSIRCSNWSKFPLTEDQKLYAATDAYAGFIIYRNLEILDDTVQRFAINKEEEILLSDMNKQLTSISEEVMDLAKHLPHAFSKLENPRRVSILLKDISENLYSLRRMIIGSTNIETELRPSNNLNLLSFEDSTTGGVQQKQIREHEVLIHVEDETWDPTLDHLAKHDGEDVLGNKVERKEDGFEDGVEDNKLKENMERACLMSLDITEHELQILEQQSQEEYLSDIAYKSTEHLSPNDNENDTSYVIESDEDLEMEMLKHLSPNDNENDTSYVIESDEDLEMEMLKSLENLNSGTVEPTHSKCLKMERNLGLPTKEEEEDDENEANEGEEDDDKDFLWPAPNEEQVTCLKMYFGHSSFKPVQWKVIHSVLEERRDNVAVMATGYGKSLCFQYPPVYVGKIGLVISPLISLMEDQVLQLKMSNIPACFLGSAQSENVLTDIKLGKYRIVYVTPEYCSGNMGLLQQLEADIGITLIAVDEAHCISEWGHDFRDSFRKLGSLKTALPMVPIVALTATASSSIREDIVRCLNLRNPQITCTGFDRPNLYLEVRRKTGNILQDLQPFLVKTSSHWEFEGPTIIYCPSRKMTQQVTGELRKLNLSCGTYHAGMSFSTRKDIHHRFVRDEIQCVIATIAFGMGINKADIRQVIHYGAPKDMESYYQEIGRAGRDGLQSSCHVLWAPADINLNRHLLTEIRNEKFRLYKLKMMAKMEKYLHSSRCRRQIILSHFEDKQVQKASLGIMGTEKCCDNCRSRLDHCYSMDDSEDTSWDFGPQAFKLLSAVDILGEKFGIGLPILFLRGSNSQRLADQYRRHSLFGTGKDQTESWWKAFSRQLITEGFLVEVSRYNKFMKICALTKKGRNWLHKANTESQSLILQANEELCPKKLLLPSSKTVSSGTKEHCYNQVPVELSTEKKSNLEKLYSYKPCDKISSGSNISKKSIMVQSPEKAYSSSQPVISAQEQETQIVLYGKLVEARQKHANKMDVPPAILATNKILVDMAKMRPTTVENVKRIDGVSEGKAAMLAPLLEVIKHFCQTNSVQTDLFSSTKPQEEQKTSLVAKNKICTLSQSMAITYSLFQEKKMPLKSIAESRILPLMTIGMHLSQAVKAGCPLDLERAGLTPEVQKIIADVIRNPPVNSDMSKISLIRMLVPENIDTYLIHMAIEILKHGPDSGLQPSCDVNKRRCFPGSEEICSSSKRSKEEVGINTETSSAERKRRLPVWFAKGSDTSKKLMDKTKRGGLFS

What is called IC50 is the point on the concentration scale where inhibition reaches its midpoint. With `CC(C)(CN1C(=O)C(Cl)=C(Cl)C1=O)CN1C(=O)C(Cl)=C(Cl)C1=O`, the values for the IC50 in assay [1], in [3] and in assay [4] were 88.7 µM, 0.23 µM and 11.3 µM, respectively. In addition, the inhibition entry (in the assay filed under Homo sapiens [2]; in assay [5]) was “inactive” each time.

In [3], `COc1ccc2nc(O)c(-c3noc(-c4ccc(F)cc4)n3)cc2c1` showed an IC50 of 13 µM.

As to `CCC(=O)OCN1C(=O)C=CC1=O`, the results for the IC50 in assay [1], in assay [6] and in assay [4] were 10.4 µM, above 200 µM and 1.6 µM, respectively. Moreover, in the assay listed under Homo sapiens [2], the inhibition result is “inactive”. The inhibition result in assay [7] was “Active”.

For the molecule `O=C1/C(=C2\Nc3ccc(S(=O)(=O)O)cc3C2=O)Nc2ccc(S(=O)(=O)O)cc21` [INDIGOTINDISULFONATE], the IC50 is above 200 µM in [8]; 5 µM in assay [1]; above 200 µM in assay [6]; 0.2 µM in assay [9]; 3.3 µM in assay [4]. For the same molecule, the inhibition entry (in the assay listed under Homo sapiens [10]; in assay [7]) was “Active” each time.

For the molecule `COc1ccc2nc(O)c(-c3noc(-c4ccccc4)n3)cc2c1`, in [3], the IC50 is 2.3 µM.

As to `Cc1ccc(NC(=O)CN2C(=O)N/C(=C/c3ccccc3OCc3cccc(C(=O)O)c3)C2=O)cc1`, the outcome in [11] was inactive. Besides, the IC50 is 47.6 µM in assay [8], 15.8 µM in assay [1], 9.8 µM in assay [9] and 26.3 µM in assay [4]. Moreover, in [5], the inhibition result was “inactive”.
